Results on one molecule are retold here after patent US20170224647A1, “NEW MDR1 INHIBITORS FOR OVERCOMING MULTIDRUG RESISTANCE” (UNIVERSITA' DEGLI STUDI DI PARMA, priority 2014, published 2017).

Data set [1] concerns the target T1, MDR1 (Homo sapiens, UniProt P08183).
T1 construct: lung squamous-cell carcinoma (SKMES) expressing high levels of MDR1 on the plasma membrane; endogenous in cells; host or cells: SKMES (lung squamous-cell carcinoma)
The data set is described as follows: MDR1-mediated accumulation of fluorescent calcein in A549 cells. Type of data set: cell-based. As to conditions: A549 human lung adenocarcinoma cells; FIG. 3A. The method, then: (§1) The lung carcinoma cell lines A549 and SKMES are grown in RPMI, supplemented with 10% fetal calf serum (FCS), 2 mM glutamine (Gln), and antibiotics (Penicillin 100 UI/ml and Streptomycin 100 μg/ml). Cells are kept in a thermostat at a temperature of 37° C., in air saturated with water vapor, enriched with 5% CO2.
(§2) Once the growth medium has been removed from the cells, a PBS washing at 37° C. is carried out, and RPMI without phenol red containing antibiotics is added, 5% FCS, 10 mM HEPES and 2mM Glutamine in the presence/absence of Calcein AM or 1 μM Hoechst and possible inhibitors are added. At the end of the loading, two washings with cold PBS are carried out, RPMI without Calcein AM or Hoechst is added, and samples are read by using the fluorescence plate reader (Enspire, Perkin Elmer; A of excitation: 360 nm; λ of emission: 465 nm). The value provided by the instrument is proportional to the intracellular concentration of Calcein AM and Hoechst. Finally, the cells are treated with 5% TCA, followed by 0.5 N NaOH to solubilize the cells. The protein content is determined by the Bradford method, and it is used for normalizing the uptake values of Calcein AM and Hoechst. The accumulation of Calcein or Hoechst is therefore expressed as the fluorescence intensity/mg proteins.

In data set [2] the target is T1, MDR1. The experiment in a line: MDR1-mediated accumulation of fluorescent calcein in SKMES cells. Particulars: SKMES lung squamous-cell carcinoma cells; compared with PSC833; FIG. 3B. It counts as cell-based. The procedure:
as §1, §2

The target of data set [3] is T2, ABCG2 (Homo sapiens, UniProt Q9UNQ0).
T2 construct: a model of human lung adenocarcinoma (H460) over-expressing such receptor; endogenous in cells; host or cells: H460 (human lung carcinoma)
T2 sequence (Q9UNQ0 1-655): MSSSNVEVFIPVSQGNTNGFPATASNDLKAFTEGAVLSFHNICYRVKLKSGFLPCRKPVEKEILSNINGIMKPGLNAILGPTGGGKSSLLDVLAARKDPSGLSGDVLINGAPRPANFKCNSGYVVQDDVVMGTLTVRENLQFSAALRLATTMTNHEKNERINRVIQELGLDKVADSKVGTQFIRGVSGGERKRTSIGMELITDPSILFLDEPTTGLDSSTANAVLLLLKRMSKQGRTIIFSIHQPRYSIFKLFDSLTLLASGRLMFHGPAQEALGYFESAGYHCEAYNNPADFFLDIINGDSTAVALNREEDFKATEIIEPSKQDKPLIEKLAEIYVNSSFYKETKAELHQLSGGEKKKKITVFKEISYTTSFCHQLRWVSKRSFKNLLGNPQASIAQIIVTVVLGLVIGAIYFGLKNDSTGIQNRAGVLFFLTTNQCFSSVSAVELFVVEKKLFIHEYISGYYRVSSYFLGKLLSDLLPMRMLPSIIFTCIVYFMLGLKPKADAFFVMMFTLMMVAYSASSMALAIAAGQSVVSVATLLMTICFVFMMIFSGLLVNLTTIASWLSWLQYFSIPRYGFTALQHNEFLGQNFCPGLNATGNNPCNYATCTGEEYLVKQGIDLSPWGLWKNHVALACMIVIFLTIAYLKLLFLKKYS
The experiment in a line: ABCG2-mediated outflow of fluorescent Hoechst in H460 cells. It counts as cell-based. As to conditions: H460 cells over-expressing ABCG2; FIG. 4. The procedure:
as §2

In data set [4] the test system is SKMES cells. The experiment in a line: Intracellular doxorubicin by confocal microscope. Type of data set: cell-based, human. The method, then:
SKMES cells were seeded on cover glasses and incubated with culture medium in a thermostat for 24 h. […]
Images were taken by using a confocal microscope (LSM 510 Meta scan integrated with a reversed microscope Carl Zeiss, Jena Germany), with a 43×/1.30 oil immersion lens.
Fluorescence of doxorubicin was excited with a 488 nm argon laser and its emission was collected by a 530 nm filter. During the analysis of the various samples, the confocal settings (excitation, laser power, detection range, and pinhole size) were kept unaltered.

The target in data set [5] is T3, ABCA1 (Mus musculus, UniProt P41233).
T3 construct: the expression of the ABCA1 protein on the plasma membrane was stimulated by adding 22-OH cholesterol and 9-cis-retinoic acid; endogenous in cells; host or cells: murine peritoneal macrophages (primary)
T3 sequence (P41233 whole entry): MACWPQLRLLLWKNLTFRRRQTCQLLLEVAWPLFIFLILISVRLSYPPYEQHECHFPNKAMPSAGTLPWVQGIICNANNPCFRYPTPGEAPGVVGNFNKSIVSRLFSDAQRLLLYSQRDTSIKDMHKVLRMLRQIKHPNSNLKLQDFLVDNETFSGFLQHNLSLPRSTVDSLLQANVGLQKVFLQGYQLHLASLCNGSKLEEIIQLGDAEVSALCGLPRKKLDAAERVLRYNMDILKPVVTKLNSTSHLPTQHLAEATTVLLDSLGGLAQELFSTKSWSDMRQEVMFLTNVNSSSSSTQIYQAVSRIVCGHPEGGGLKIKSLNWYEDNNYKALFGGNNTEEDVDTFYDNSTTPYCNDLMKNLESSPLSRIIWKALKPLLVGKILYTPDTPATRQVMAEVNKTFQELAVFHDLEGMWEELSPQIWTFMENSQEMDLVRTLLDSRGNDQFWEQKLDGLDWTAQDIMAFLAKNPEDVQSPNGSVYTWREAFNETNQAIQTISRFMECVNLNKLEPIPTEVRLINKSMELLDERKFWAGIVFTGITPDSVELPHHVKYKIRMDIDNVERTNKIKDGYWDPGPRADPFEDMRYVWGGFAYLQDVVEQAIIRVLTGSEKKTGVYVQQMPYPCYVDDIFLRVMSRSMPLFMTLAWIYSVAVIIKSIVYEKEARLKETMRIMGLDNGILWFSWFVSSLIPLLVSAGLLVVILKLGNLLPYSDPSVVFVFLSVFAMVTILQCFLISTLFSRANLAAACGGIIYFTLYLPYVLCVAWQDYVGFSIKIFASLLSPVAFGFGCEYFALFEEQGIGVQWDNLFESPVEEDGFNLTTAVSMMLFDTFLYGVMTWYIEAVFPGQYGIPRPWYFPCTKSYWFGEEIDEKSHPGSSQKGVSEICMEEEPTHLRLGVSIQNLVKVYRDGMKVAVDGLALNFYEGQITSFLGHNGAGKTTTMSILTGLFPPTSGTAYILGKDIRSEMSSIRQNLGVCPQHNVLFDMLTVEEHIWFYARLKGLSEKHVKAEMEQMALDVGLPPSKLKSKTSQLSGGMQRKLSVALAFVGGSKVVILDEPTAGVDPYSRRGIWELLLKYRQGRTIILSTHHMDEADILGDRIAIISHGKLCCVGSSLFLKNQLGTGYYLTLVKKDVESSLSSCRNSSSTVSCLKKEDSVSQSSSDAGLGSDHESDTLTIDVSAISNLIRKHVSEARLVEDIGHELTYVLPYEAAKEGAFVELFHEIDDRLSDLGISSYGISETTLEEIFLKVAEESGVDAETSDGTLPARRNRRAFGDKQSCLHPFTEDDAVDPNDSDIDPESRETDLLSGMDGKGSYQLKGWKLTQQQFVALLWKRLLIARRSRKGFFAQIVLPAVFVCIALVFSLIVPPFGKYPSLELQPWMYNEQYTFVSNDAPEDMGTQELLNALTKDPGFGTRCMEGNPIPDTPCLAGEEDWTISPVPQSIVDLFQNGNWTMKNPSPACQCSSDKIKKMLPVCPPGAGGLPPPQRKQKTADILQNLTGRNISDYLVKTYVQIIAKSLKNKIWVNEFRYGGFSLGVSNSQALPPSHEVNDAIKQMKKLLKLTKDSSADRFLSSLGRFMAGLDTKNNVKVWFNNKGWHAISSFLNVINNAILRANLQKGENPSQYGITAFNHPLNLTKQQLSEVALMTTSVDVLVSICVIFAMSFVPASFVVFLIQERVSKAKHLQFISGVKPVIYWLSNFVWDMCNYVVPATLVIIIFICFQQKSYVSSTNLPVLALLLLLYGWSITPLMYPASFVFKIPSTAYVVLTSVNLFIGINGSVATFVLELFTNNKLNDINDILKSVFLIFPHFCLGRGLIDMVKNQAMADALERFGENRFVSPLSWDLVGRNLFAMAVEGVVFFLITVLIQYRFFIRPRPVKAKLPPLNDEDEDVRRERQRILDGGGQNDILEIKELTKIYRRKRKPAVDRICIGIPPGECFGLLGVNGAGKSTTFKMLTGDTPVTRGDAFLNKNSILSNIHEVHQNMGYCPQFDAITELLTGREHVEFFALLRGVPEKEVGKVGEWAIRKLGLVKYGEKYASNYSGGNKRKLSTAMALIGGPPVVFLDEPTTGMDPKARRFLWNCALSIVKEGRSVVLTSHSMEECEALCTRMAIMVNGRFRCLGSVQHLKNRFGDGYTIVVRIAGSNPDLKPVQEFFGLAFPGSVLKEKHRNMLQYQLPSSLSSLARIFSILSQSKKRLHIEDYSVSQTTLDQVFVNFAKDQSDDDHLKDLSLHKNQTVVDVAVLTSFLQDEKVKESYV
The data set is described as follows: ABCA1-mediated cholesterol outflow. Type of data set: cell-based. As to conditions: murine peritoneal macrophages, apolipoprotein A-I acceptor; FIG. 5B. The procedure:
Murine peritoneal macrophages were seeded in da 24-well plates, each containing 10^6 cell/well in 10% RPMI of fetal bovine serum (FBS). After 24 h, following a PBS washing, the cells were incubated with radiolabeled medium containing [3H]-cholesterol at a concentration of 2 μCi/ml in a medium supplemented with FBS 2% in the presence of the inhibitor of the esterifying enzyme ACAT (SAH58035) at a final concentration of 2 μg/ml in order to maintain all the intracellular cholesterol in the free form and the ABCA1 substrate in the outflow process. At the completion of the 24-hour staining, after the PBS washing, the cells were incubated with an equilibration medium composed of RPMI, 0.2% albumin, and the ACAT inhibitor. […] The filtered medium was collected and transferred into a vial, together with the scintillation liquid for the subsequent reading at the β-counter for the measurement of the radioactivity present in the cultural medium, which is an index of the free cholesterol excreted by the cells. The outflow percentage is calculated on the total radioactivity which is present in the cell by the following formula: % outflow=(average cpm/total cpm of the monolayer)×100. Each experimental condition was carried out in triplicates, and data was expressed as mean±standard deviation.

The target in data set [6] is T4, ABCG1 (Homo sapiens, UniProt P45844).
T4 construct: expressed in transfected cells; host or cells: CHO-L3 (derived from hamster ovary CHO-K1, which serves as control)
The experiment in a line: ABCG1-mediated cholesterol outflow. It counts as cell-based, hamster. Particulars: CHO-L3 over-expressing ABCG1 vs CHO-K1, HDL acceptor; FIG. 5A. The procedure: In order to assess the ABCG1-mediated outflow, control hamster ovary cells CHO-K1 and CHO-L3 over-expressing the ABCG1 protein in Ham's medium F12 with 10% FBS were seeded in parallel in sterile 24-well plates. After 24 h, both cell lines were labeled with 10% FBS medium containing 1 μCi/ml [3H]-cholesterol. At the end of the labelling period (24 h), both cell lines were washed with PBS and equilibrated during 90 minutes with medium supplemented with 0.2% albumin. At the end of the equilibration, the cells were treated in the absence or presence of our compound AIF1 during 2 hours, and incubated for the next 6 hours e with the cholesterol acceptors, HDLs, at a concentration of 12.5 μg/ml. The quantification of the tritiated cholesterol secreted by the cells in the medium was determined as described in the previous paragraph. In particular, the contribution of the ABCG1 transporter to the cholesterol outflow was calculated as the difference between the outflow percentages obtained from the cell line CHO-L3 over-expressing ABCG1 and those obtained from the control cell line CHO-K1. Each experimental condition was carried out in triplicates, and data was expressed as mean±standard deviation.

Data set [7] concerns tumoral cell. The experiment in a line: Intracellular concentration of doxorubicin by LC-MS/MS. Particulars: after AIF1 treatment compared to untreated cells; FIG. 8. It counts as cell-based. The method, then:
The intracellular content of Doxorubicin and AIF-1 may be determined by liquid chromatography-tandem mass spectrometry (LC-MS/MS) of samples extracted with absolute ethanol. In particular, after the treatment with the drugs, the culture medium is removed, and 3 washings of the cell monolayer with PBS are carried out. Then, the cells are incubated for ten minutes at room temperature with absolute ethanol, which is then analyzed by a LC-MS/MS technique. Values were normalized for the protein content assessed after solubilization of the cell monolayer with 0.5N NaOH and are expressed as pmoles/mg proteins.
Doxorubicin and AIF-1 concentrations in the samples of cell extracts were determined by liquid chromatography-tandem mass spectrometry (LCMS/MS) by using a mass spectrometer.
The samples extracted in ethanol were filtered on a 0.2 μm cellulose filter and analyzed by liquid chromatography-tandem mass spectrometry (LC-MS/MS). […]
The full scan mass spectra were recorded in the 250-900 m/z range, using a 0.1 stepsize and 1 s scan time in the positive ion mode for doxorubicin and atenolol (ATN, used as the internal standard) and in the negative ion mode for AIF1. […]

T1 sequence (P08183 whole entry): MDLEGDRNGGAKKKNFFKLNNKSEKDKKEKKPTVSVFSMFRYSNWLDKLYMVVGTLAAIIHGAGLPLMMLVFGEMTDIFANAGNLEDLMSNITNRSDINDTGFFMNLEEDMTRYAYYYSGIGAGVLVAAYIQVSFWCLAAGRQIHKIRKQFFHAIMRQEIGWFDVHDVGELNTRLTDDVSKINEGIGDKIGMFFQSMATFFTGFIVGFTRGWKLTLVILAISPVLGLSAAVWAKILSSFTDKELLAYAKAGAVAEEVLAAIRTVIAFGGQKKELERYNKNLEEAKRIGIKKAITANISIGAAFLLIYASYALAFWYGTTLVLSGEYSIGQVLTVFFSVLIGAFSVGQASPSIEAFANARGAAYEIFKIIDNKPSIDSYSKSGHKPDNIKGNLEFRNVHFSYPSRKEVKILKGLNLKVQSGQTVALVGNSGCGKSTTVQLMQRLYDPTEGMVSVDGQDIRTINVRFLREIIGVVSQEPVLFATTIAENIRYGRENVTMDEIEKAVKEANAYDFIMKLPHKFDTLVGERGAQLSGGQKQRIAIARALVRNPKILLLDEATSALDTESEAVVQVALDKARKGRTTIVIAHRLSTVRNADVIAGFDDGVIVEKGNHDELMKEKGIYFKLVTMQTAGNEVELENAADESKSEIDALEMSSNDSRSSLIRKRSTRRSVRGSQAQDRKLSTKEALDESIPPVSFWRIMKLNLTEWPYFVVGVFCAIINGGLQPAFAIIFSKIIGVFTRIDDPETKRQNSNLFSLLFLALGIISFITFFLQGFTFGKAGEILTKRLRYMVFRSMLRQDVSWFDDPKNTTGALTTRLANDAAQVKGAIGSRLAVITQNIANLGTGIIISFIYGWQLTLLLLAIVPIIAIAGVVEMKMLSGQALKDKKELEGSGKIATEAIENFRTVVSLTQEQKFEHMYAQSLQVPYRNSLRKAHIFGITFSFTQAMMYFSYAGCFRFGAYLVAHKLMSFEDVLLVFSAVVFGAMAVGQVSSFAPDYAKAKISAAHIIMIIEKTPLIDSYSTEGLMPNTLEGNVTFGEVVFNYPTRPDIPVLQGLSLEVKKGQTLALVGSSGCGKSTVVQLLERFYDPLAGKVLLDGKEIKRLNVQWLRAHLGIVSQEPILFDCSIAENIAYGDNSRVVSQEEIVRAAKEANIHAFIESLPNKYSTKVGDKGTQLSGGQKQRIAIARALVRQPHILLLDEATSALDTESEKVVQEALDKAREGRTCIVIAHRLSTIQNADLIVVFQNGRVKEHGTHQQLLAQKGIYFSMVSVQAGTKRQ

For the molecule `CC(C)(Sc1cc(C(C)(C)C)c(OC(=O)CCC(=O)O)c(C(C)(C)C)c1)Sc1cc(C(C)(C)C)c(OC(=O)CCC(=O)O)c(C(C)(C)C)c1` [AIF1], the “intracellular concentration of calcein (MDR1-mediated cell outflow of fluorescent calcein)” value in data set [1] was “significantly and dose-dependent increases”. In addition, the “effect on MDR1-mediated accumulation of fluorescent calcein” value in data set [2] is recorded as “highly effective”. Moreover, the “accumulation/extrusion of fluorescent Hoechst (ABCG2 substrate)” value in data set [3] was “did not show any effect”. Moreover, the “intracellular fluorescent signal of doxorubicin” value in data set [4] (after 60 and 90 minutes of doxorubicin in the presence of AIF1, FIGS. 7B, 7C) is on record as “remains almost unaltered”; in data set [4] (after 30 minutes doxorubicin, vs cells not treated with the compound, FIG. 7A), “considerably increased”. For the same molecule, the “outflow of cholesterol mediated by ABCA1” value in data set [5] is “does not show any effect”. Also, the “outflow of cholesterol mediated by ABCG1” value in data set [6] was “does not show any effect”. Besides, the “concentration of intracellular doxorubicin” value in data set [7] is recorded as “significantly higher”.
